Results as given in US7488822B2 (Wyeth, priority 1999, dated 2009).
“And” between values parts separate entries of the source, which are not always exact repeats. Identical values can stand only once. One block for each compound: values may come before it.

Legend:
[1] = system: rat uterine decidualization; assay: Rat decidualization assay; type: in vivo; settings: for Decidualization IC50: decrease in EC50 progesterone induced decidual response; for Estimated average EC50 (mg/kg, s.c.): average for dose-response curves; for Estimated EC50 (mg/kg, s.c.): uterine wet weight
Experimental: The animals are treated once daily for seven days. […] Uteri are removed and trimmed of fat.
Body weight: Mean total animal body weight (default-kg)
Decidual response: [(D-C)/C]×100%

[2] = system: T47D cells; assay: T47D cell proliferation assay (BrdU incorporation); type: cell-based; settings: half-maximal decrease in trimegestone induced BrdU incorporation, individual studies, read-out: Estimated IC50
Experimental: T47D cell proliferation assay • The objective of this assay is the determination of progestational and antiprogestational potency by using a cell proliferation assay in T47D cells. A compound's effect on DNA synthesis in T47D cells is measured. […] Growth medium: DMEM:F12 (1:1) (GIBCO, BRL) supplemented with 10% (v/v) fetal bovine serum (not heat-inactivated), 100 U/ml penicillin, […], and 2 mM GlutaMax (GIBCO, BRL). • b. Treatment medium: Minimum Essential Medium (MEM) (#51200-038GIBCO, BRL) phenol red-free supplemented with 0.5% charcoal stripped fetal bovine serum, 100 U/ml penicillin, […] streptomycin, and 2 mM GlutaMax (GIBCO, BRL). • c. Cell Culture • Stock T47 D cells are maintained in growth medium. For BrdU incorporation assay, cells are plated in 96-well plates (Falcon, Becton Dickinson Labware) at 10,000 cells/well in growth medium. […] Cell Proliferation Assay • At the end of BrdU labeling, the medium is removed and BrdU incorporation is measured using a cell proliferation ELISA kit (#RPN 250, Amersham Life Science) according to manufacturer's instructions. […] Then 25 μl of 1 M sulfuric acid is added to each well to stop color reaction and optical density is read in a plate reader at 450 nm within 5 min. • e. […] EC50 or IC50 values are calculated from the retransformed values. […]

Decidualization IC50 [1]: 0.35 mg/kg
SMILES: CC1(C)OC(=O)Nc2ccc(-c3cc(F)cc(C#N)c3)cc21 [Compound 19, 3-(4,4-Dimethyl-2-oxo-1,4-dihydro-2H-benzo[d][1,3]oxazin-6-yl)-5-fluorobenzonitrile]

SMILES: Cc1cc(C#N)sc1-c1ccc2c(c1)C1(CCCCC1)OC(=O)N2 [Compound 10, 5-(1,2-Dihydro-2-oxospiro[4H-3,1-benzoxazine-4,1-cyclohexan]-6-yl)-4-methyl-2-thiophenecabonitrile]
Decidualization, percentage inhibition at the dose specified ([1]; @ 10 mg/kg): 50% @

Estimated average EC50 (mg/kg, s.c.) [1]: 0.10 mg/kg
Estimated EC50 (mg/kg, s.c.) ([1]; individual studies): 0.10 mg/kg and 0.06 mg/kg and 0.11 mg/kg
SMILES: C#C[C@]1(O)CC[C@H]2[C@@H]3CCC4=CC(=O)CC[C@@H]4[C@H]3C(=C)C[C@@]21CC [3-Ketodesogestrel]

melting point: 272 to 275 °C
SMILES: CC1(C)OC(=O)Nc2ccc(-c3ccc(C#N)c(F)c3)cc21 [Example 114, 6-(4-Cyano-3-fluoro-phenyl)-4,4-dimethyl-1,4-dihydrobenzo[d][1,3]-oxazin-2-one]

melting point: 258 to 260 °C
SMILES: CC1(C)OC(=O)Nc2ccc(-c3ccc(S(N)(=O)=O)s3)cc21 [Example 141, 5-(4,4Dimethyl-2-oxo-1,4-dihydro-2H-benzo[d][1,3]-oxazin-6-yl)-thiophene-2-sulfonamide]

IC50 [2]: 0.016 nM and 0.018 nM
Estimated IC50 (mg/kg, p.o.) ([1]; p.o., EC50 dose of progesterone, individual studies): 0.21 mg/kg and 0.14 mg/kg
SMILES: CC#C[C@]1(O)CC[C@H]2[C@@H]3CCC4=CC(=O)CCC4=C3[C@@H](c3ccc(N(C)C)cc3)C[C@@]21C [RU486]

Decidualization IC50 [1]: 2.3 mg/kg
SMILES: CC1(C)OC(=O)Nc2ccc(-c3csc(C#N)c3)cc21 [Compound 17, 4-(4,4-Dimethyl-2-oxo-1,4-dihidro-2H-benzo[d][1,3]oxazin-6-yl)-thiophene-2-carbonitrile]

SMILES: CC1(C)OC(=O)Nc2ccc(-c3coc(C#N)c3)cc21 [Compound 7, 4-(4,4-Dimethyl-2-oxo-1,4-dihydro-2H-benzo[d][1,3]oxazin-6-yl)-furan-2-carbonitrile]
inhibition at 3 mg/kg ([1]; @ 3 mg/kg, read-out: Decidualization, percentage inhibition at the dose specified): 75%

Estimated EC50 (mg/kg, s.c.) ([1]; individual studies): 0.42 mg/kg and 0.39 mg/kg (2×)
SMILES: CC(=O)O[C@]1(C(C)=O)CC[C@H]2[C@@H]3C[C@H](C)C4=CC(=O)CC[C@]4(C)[C@H]3CC[C@@]21C [MPA, medroxyprogesterone acetate]

Decidualization IC50 [1]: 3 mg/kg
SMILES: CC1(C)OC(=O)Nc2ccc(-c3cccc(Br)c3)cc21 [Compound 13, 6-(3-Bromo-phenyl)-4,4-dimethyl-1,4-dihydro-benzo[d][1,3]-oxazin-2-one]

Decidualization IC50 [1]: 1 mg/kg
SMILES: CC1(C)OC(=O)Nc2ccc(-c3ccc(F)c(Cl)c3)cc21 [Compound 20, 6-(3-Chloro-4-fluoro-phenyl)-4,4-dimethyl-1,4-dihydro-benzo[d][1,3]oxazin-2-one]

Estimated EC50 (mg/kg, s.c.) ([1]; individual studies): 5.50 mg/kg
SMILES: CC(=O)[C@H]1CC[C@H]2[C@@H]3CCC4=CC(=O)CC[C@]4(C)[C@H]3CC[C@]12C [Progesterone]

Decidualization IC50 [1]: 1.5 mg/kg
SMILES: Cc1cc(C#N)sc1-c1ccc2c(c1)C(C)(C)OC(=O)N2 [Compound 18, 5-(4,4-Dimethyl-2-oxo-1,4-dihydro-2H-benzo[d][1,3]oxazin-6-yl)-4-methyl-thiophene-2-carbonitrile]

Estimated average EC50 (mg/kg, s.c.) [1]: 0.10 mg/kg
SMILES: C#C[C@]1(O)CC[C@H]2[C@@H]3CCC4=CC(=O)CC[C@@H]4[C@H]3CC[C@@]21CC [Levonorgestrel]
Estimated EC50 (mg/kg, s.c.) ([1]; individual studies): 0.08 mg/kg and 0.12 mg/kg and 0.09 mg/kg (2×)

Decidualization IC50 [1]: 3 mg/kg
SMILES: N#Cc1cc(F)cc(-c2ccc3c(c2)C(C2CC2)(C2CC2)OC(=O)N3)c1 [Compound 15, 3-(4,4-Dicyclopropyl-2-oxo-1,4-dihydro-2H-benzo[d][1,3]oxazin-6-yl)-5-fluoro-benzonitrile]
